Measured values: ChEMBL document CHEMBL1201862, “PubChem BioAssay data set” (2004)
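Dose response: 5 concentrations. Exposure: 48 h. Format: 96-well plates. Endpoint: linear interpolation; highest concentration if not reached. GI50 marks 50% less growth.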 Active and inactive are the calls of the source. Cut-off read from the data, not from the text of the source: active = GI50 up to about 1.1 µM and inactive = higher.

Experiments:
Experiment in all cases: DTP human tumour cell line panel, 48 h
[1] = test system: A549
[2] = test system: UACC-62
[3] = test system: HL-60
[4] = test system: M14
[5] = test system: OVCAR-3
[6] = test system: SF-268
[7] = test system: HOP-62
[8] = test system: K562
[9] = test system: UACC-257
[10] = test system: RPMI-8226
[11] = test system: OVCAR-4
[12] = test system: SF-295
[13] = test system: HCT-15
[14] = test system: CCRF-CEM
[15] = test system: SNB-75
[16] = test system: EKVX
[17] = test system: SK-MEL-28
[18] = test system: OVCAR-5
[19] = test system: HCT-116
[20] = test system: IGROV-1
[21] = test system: NCI-H460
[22] = test system: CAKI-1
[23] = test system: MDA-MB-435
[24] = test system: UO-31
[25] = test system: HCC 2998
[26] = test system: PC-3
[27] = test system: NCI-H226
[28] = test system: 786-0
[29] = test system: BT-549
[30] = test system: NCI-H23
[31] = test system: NCI/ADR-RES
[32] = test system: RXF 393
[33] = test system: A498
[34] = test system: MOLT-4
[35] = test system: ACHN
[36] = test system: TK-10
[37] = test system: SK-OV-3
[38] = test system: OVCAR-8
[39] = test system: COLO 205
[40] = test system: HT-29
[41] = test system: U-251
[42] = test system: MCF7
[43] = test system: HOP-92
[44] = test system: NCI-H522
[45] = test system: MDA-MB-231
[46] = test system: Hs-578T
[47] = test system: SK-MEL-5
[48] = test system: SNB-19
[49] = test system: LOX IMVI
[50] = test system: SK-MEL-2
[51] = test system: SW-620
[52] = test system: Malme-3M
[53] = test system: KM12
[54] = test system: DU-145
[55] = test system: MDA-N
[56] = test system: T47D
[57] = test system: SF-539
[58] = test system: SR

Measured: GI50

N/C(=N\c1ccc(Cl)c(Cl)c1)c1ccccc1N
inactive: [1] 25.3 µM | [2] 54.5 µM | [3] 22.2 µM | [4] 15.5 µM | [5] 39.5 µM | [6] 20.2 µM | [7] 57.4 µM | [8] 18.4 µM | [9] 27.1 µM | [10] 15.6 µM | [11] 50.8 µM | [12] 40.6 µM | [14] 27.7 µM | [15] 31.4 µM | [16] 18.3 µM | [17] 24 µM | [18] 36 µM | [19] 17.2 µM | [20] 13.3 µM | [21] 34.8 µM | [22] 30.3 µM | [23] 18.5 µM | [24] 24.2 µM | [25] 17.7 µM | [26] 19.3 µM | [27] 42.6 µM | [28] 28.2 µM | [29] 24 µM | [30] 24.3 µM | [31] 19.2 µM | [32] 32.7 µM | [33] 22.3 µM | [34] 2.7 µM | [35] 56.8 µM | [36] 36.8 µM | [37] 85.7 µM | [38] 26.4 µM | [39] 20.6 µM | [40] 24.3 µM | [41] 30.1 µM | [42] 52.1 µM | [43] 2.88 µM | [44] 11.4 µM | [45] 25.3 µM | [46] 12.3 µM | [47] 22.6 µM | [48] 31.3 µM | [49] 22.1 µM | [50] 15.4 µM | [51] 63.8 µM | [52] 19 µM | [53] 33.6 µM | [54] 51.9 µM | [55] 19.6 µM
28.2 µM: [13]

CC12CC(c3ccccc3O1)C(C(=O)Nc1ccc(F)cc1)C(=O)N2 (stereo unspecified)
> 100 µM: [13]
inactive: [1] 91 µM | [2] 71.6 µM | [3] 29.6 µM | [4] > 100 µM | [5] > 100 µM | [6] > 100 µM | [7] > 100 µM | [8] 47.9 µM | [9] 81.8 µM | [10] 40.3 µM | [11] 51.9 µM | [14] 28.2 µM | [16] 45.2 µM | [17] > 100 µM | [18] > 100 µM | [19] > 100 µM | [20] 49.1 µM | [21] 89.7 µM | [22] > 100 µM | [23] > 100 µM | [24] 65.9 µM | [25] > 100 µM | [26] > 100 µM | [28] > 100 µM | [29] 38.5 µM | [30] 44.6 µM | [31] 47.4 µM | [33] > 100 µM | [56] 33.5 µM | [34] 21.1 µM | [35] > 100 µM | [37] > 100 µM | [38] 36 µM | [39] > 100 µM | [40] 89.9 µM | [41] > 100 µM | [57] > 100 µM | [42] > 100 µM | [58] 73.1 µM | [44] 63.2 µM | [46] > 100 µM | [47] 32.5 µM | [48] > 100 µM | [49] > 100 µM | [50] > 100 µM | [51] > 100 µM | [52] > 100 µM | [53] > 100 µM | [54] > 100 µM | [55] > 100 µM
